Tests used:
BaiA2 from C. scindens = biological target: T1, BaiA2 from C. scindens ([Clostridium] scindens, UniProt P19337); test: LC-MS extracted ion chromatograms; format: biochemical; conditions: reduction to DCA; experiment performed once
T1 sequence (P19337 1-249): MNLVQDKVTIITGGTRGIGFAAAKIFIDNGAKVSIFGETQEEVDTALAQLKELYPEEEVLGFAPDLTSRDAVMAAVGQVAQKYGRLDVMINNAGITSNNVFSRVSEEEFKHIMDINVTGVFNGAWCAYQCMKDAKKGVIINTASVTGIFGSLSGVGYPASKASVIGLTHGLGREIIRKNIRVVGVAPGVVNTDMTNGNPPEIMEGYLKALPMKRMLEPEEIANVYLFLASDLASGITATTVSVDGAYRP

BaiH from C. scindens = biological target: T2, BaiH from C. scindens ([Clostridium] scindens, UniProt P32370); test: LC-MS of acid-precipitated purified enzyme; format: binding; conditions: as purified after expression and lysis with added flavin
T2 sequence (P32370 1-661): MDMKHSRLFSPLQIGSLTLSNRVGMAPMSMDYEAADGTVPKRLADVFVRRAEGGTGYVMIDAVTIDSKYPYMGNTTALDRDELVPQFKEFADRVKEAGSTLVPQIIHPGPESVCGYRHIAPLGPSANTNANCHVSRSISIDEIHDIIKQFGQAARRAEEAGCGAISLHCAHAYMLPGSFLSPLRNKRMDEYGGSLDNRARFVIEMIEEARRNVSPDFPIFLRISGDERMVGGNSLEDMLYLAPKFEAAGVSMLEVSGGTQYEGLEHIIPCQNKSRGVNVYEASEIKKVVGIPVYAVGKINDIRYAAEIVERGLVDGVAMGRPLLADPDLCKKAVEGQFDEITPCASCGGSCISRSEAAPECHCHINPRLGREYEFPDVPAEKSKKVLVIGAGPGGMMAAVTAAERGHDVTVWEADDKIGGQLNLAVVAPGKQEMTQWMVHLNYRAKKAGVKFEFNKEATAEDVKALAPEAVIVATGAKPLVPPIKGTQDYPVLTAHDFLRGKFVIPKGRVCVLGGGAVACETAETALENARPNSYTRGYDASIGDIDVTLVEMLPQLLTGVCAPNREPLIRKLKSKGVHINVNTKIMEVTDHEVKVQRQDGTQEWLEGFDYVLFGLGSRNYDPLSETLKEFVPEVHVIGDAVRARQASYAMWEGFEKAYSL

BaiCD from C. hiranonis = biological target: T3, BaiCD from C. hiranonis (Peptacetobacter hiranonis, UniProt Q9RB48); test: LC-MS of acid-precipitated purified enzyme; format: binding; conditions: as purified after expression and lysis with added flavin
T3 sequence (Q9RB48 1-639): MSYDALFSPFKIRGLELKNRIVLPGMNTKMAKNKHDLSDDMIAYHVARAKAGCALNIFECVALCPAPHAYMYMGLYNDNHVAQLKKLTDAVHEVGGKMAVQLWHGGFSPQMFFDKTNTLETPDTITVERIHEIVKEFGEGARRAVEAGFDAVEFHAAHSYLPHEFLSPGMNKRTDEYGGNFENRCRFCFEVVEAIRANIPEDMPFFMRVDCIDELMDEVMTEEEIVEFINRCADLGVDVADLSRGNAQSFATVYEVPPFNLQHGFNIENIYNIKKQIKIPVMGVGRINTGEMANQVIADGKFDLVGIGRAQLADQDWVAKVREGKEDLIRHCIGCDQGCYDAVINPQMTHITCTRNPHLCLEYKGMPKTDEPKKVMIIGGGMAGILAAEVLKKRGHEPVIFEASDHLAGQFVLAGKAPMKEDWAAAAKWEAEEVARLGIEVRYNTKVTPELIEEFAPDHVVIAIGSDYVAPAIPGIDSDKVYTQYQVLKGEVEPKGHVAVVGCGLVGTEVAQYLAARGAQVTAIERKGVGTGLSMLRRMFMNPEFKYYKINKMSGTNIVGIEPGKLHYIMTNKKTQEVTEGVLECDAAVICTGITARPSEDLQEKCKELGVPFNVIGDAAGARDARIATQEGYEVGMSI

Structure (SMILES)	LC-MS extracted ion chromatograms (BaiA2 from C. scindens)	LC-MS of acid-precipitated purified enzyme; UV-vis (BaiH from C. scindens)	LC-MS of acid-precipitated purified enzyme; UV-vis (BaiCD from C. hiranonis)
C[C@H](CCC(=O)O)[C@H]1CC[C@H]2[C@@H]3CC[C@@H]4CC(=O)CC[C@]4(C)[C@H]3C[C@H](O)[C@]12C [compound 8, 3-oxo-deoxycholic acid]	conversion of 3-oxo-DCA to DCA by recombinant BaiA2		
Cc1cc2nc3c(=O)[nH]c(=O)nc-3n(C[C@H](O)[C@H](O)[C@H](O)COP(=O)(O)OP(=O)(O)OC[C@H]3O[C@@H](n4cnc5c(N)ncnc54)[C@H](O)[C@@H]3O)c2cc1C [FAD]		The presence of FAD and FMN were confirmed by precipitating purified enzyme with sulfuric acid	The presence of FAD and FMN were confirmed by precipitating purified enzyme with sulfuric acid
Cc1cc2nc3c(=O)[nH]c(=O)nc-3n(C[C@H](O)[C@H](O)[C@H](O)COP(=O)(O)O)c2cc1C [FMN]		The presence of FAD and FMN were confirmed by precipitating purified enzyme with sulfuric acid	The presence of FAD and FMN were confirmed by precipitating purified enzyme with sulfuric acid

Reference: article PMC7319900 (Nature, 2020)
